Source: patent US10578622B2, “Sensors for detecting citrate, and method of detecting citrate using the same” (KOREA INSTITUTE OF SCIENCE AND TECHNOLOGY, priority 2017, dated 2020)

Experiments:
[1] = Photophysical properties of the citrate detection sensor in the presence and absence of citrate; format: physicochemical
Procedure: Meanwhile, referring to FIG. 5, it can be seen that the citrate detection sensor not subjected to reaction with citrate expresses (blue) fluorescence while emitting weak fluorescence at 346 nm and 458 nm. On the contrary, when citrate is added to the citrate detection sensor including 2 μM of ARBD in the presence of 10 mM of 4-(2-hydroxyethyl)-1-piperazineethane sulfonic acid (HEPES) buffer (2 vol % DMSO) at pH 7.4, it can be seen that strong fluorescence appears at 548 nm together with a dramatic color change from blue to green. […] However, such a change in fluorescence is differentiated preferentially by visualization.

[2] = Job plot and reaction kinetics of the sensor including ARBD with citrate; conditions: reaction with citrate; plot of ln(Fmax−F)/Fmax vs time
Excerpt: To understand the bonding behavior in the reaction between the citrate detection sensor including ARBD and citrate, the reaction was investigated by using the Job plot.
It can be seen from FIG. 3 that the maximum absorption intensity appears at a molar fraction of 0.5. Thus, it can be seen that a 1:1 complex is formed during the reaction of the citrate detection sensor with citrate. In this case, the reaction kinetics may be expressed by −kt=ln(Fmax−F)/Fmax (wherein k=rate constant, and ‘F’ and ‘Fmax’ represent the fluorescence intensity at time ‘t’). In addition, the maximum intensity reaction value accomplished after the completion of the reaction was calculated by using the plot of ‘ln(Fmax−F)/Fmax vs time’ as shown in FIG. 4.

[3] = Fluorescence intensity as a function of time and pH in the presence of citrate; format: physicochemical
Procedure: Meanwhile, FIG. 6A to FIG. 6C show a graph illustrating a change in fluorescence intensity of the citrate detection sensor as a function of time in the presence of different concentrations of citrate (0-0.9 μM), a graph illustrating fluorescence emission intensity of ARBD and citrate at different pH values and a fluorescence image thereof, respectively.
When optimizing the determination condition in FIG. 6A, it can be seen that the maximum value of fluorescence intensity is accomplished within about 15 minutes. […] Thus, it can be seen that when citrate is introduced to the citrate detection sensor, fluorescence enhancement may be varied with pH.

[4] = High-sensitivity detection of citrate (UV-Vis absorption and fluorescence titration); conditions: pH 7.4, 10 mM HEPES (2 vol % DMSO)
Procedure: The initial citrate tracking ability of the citrate detection sensor including ARBD was evaluated by using UV-Vis absorption spectrometry using ARBD at pH 7.4 in the presence of 10 mM of HEPES buffer solution (2 vol % DMSO). Referring to FIG. 7A to FIG. 7C, it is possible to determine a change in fluorescence spectrum of ARBD when adding citrate at a concentration increasing linearly. […] The absorption intensity at 346 nm is decreased whenever citrate is added and a new peak position appears at 400 nm. In addition, as shown in FIG. 7A to FIG. 7C, it can be seen that an increase in concentration of citrate affects both the fluorescence intensity and the fluorescence wavelength. Further, it can be seen that when the concentration of citrate is increased from 0 to 800 nM for the citrate detection sensor including 2 μM of ARBD at pH 7.4 in the presence of 10 mM of HEPES buffer solution (2 vol % DMSO), the maximum fluorescence intensity is increased linearly to 548 nm. It can be also seen that when the concentration of citrate is increased to 950 nM, the peak at 548 nm is increased linearly while causing no change in wavelength.

[5] = Selectivity and interference of the citrate detection sensor
Procedure: The citrate detection sensor was used to test the selectivity and interference capability to the related similar species for the detection of the other biological carboxylate and citrate. For this test, 1 μM of citrate and 0.5 mM of the other ions were added ((1) sensor, (2) citrate, (3) fumarate, (4) benzoate, (5) glutamate, (6) succinate, (7) malonate, (8) oxalate, (9) acetate, (10) phosphate, (11) sulfite, and (12) sulfate).
Referring to FIG. 8C, it can be seen that even when the other ionic substances have a concentration at least 500 times higher than the concentration of citrate, the citrate detection sensor is reactive selectively with citrate without any interference under high sensitivity. In addition, since it is well known that boronate is a diol sensor, selectivity was also determined for the other materials having a diol moiety, such as hydrogen peroxide (H2O2), glucose, fructose, sucrose, dopamine species, or the like. […] Although the two analytes undergo a reaction in response to the fluorescence intensity, it can be seen that citrate emits green fluorescence and H2O2 emits blue fluorescence. Thus, it can be seen that since only citrate emits green fluorescence in a biological sample at a concentration of ‘μM’ scale, it is possible to detect citrate with ease by the naked eyes through the citrate detection sensor.

PC3 cells = experiment: Fluorescence expression of the citrate detection sensor in living PC3 cells; format: cell-based; conditions: ARBD 2 μM, cultured 30 minutes
Procedure: The citrate detection sensor was evaluated in terms of its probe capability in living cells (PC3). […] Particularly, after the citrate sensor including ARBD (2 μM) was cultured for 30 minutes, the image in PC3 cells was observed.
FIG. 9A to FIG. 9C show the fluorescence expressed generally when ARBD is introduced to prostate cancer cells. The image (FIG. 9C) of the expressed fluorescence (FIG. 9A) overlapped with the photo image (FIG. 9B) of the cell lines is shown between them. Then, green fluorescence expressed when adding citrate to the detection sensor inserted to the cell lines was observed. The image (FIG. 9D) after adding citrate, the photo image (FIG. 9E) thereof and their overlapped image (FIG. 9F) are shown in FIG. 9D to FIG. 9F.

Fluorescence quantum yield [1]: 0.18 | Maximum absorption wavelength (λabs) [1]: 352 | Maximum emission wavelength (λemiss) [1]: 458 | fluorescence emission wavelength ([1]; citrate added, 2 μM ARBD, 10 mM HEPES buffer (2 vol % DMSO), pH 7.4, strong fluorescence, color change blue to green): 548 nm | fluorescence emission wavelength ([1]; sensor not subjected to reaction with citrate, weak (blue) fluorescence): 458 nm | pH of highest and stable fluorescence intensity ([3]; ARBD and citrate at different pH values): 7-8 pH | stability of fluorescence intensity after reaction with citrate ([3]; citrate 0-0.9 μM, whole concentration range): maintained constantly to 60 minutes | new absorption peak position on addition of citrate ([4]; citrate 0 to 12 μM): 400 nm | absorption peak ([4]; initial stage, no citrate): 346 nm
Compound: CC1(C)OB(c2ccc(-c3nc(-c4ccc(-c5nc(-c6ccccc6)c(-c6ccccc6)[nH]5)cc4)no3)cc2)OC1(C)C [ARBD, 5-(4-(4,4,5,5-tetramethyl-1,3,2-dioxaborolan-2-yl)phenyl)-3-(4-(4,5-diphenyl-1H-imidazol-2-yl)phenyl)-1,2,4-oxadiazole]
k (reaction rate constant) [2]: 0.148 min⁻¹ | time to maximum value of fluorescence intensity ([3]; citrate 0-0.9 μM): ≤ 15 min | detection limit for citrate ([4]; S/N=3, 2 μM ARBD): 10 nM | selectivity: fluorescence enhancement by citrate versus other ions ([5]; 1 μM citrate, 0.5 mM fumarate, benzoate, glutamate, succinate, malonate, oxalate, acetate, phosphate, sulfite, sulfate): only citrate can induce fluorescence enhancement | selectivity versus materials having a diol moiety ([5]; H2O2, glucose, fructose, sucrose, dopamine species, citrate emits green, H2O2 blue fluorescence): reacts only with citrate and hydrogen peroxide | interference of other ionic compounds with detection of citrate ([5]; other species at least 500 times higher concentration than citrate): no effect upon the detection of citrate | fluorescence in cells after adding citrate (PC3 cells): reacts with citrate to express a green color
